# According to US12201591B2, “Sustained release compositions of endoxifen” (Atossa Therapeutics, Inc., priority 2019, dated 2025):
# Where “and” joins values, the source holds several entries; their conditions need not be identical. Equal entries are not always repeated. Where two headings read alike, the source gives them in different places.
# Assays:
# [1] = Phase I pharmacokinetic study of (Z)-endoxifen tablet and capsule, single and multiple dose; format: in vivo, human; details: for (E)-endoxifen levels in serum and plasma: all the times studied
# Protocol: A total of 24 healthy female subjects aged ≥18 years and ≤65 years (inclusive) at the time of screening were randomly assigned and enrolled into two groups (each group n=12) in double-blinded fashion and received the study drug by once daily oral administration. […] Both groups were dosed in the SAD phase of the study. The safety and PK results from both groups were reviewed to determine if both Groups 1 and 2 were to be dosed in the MAD phase of the study, or if only Group 2 (tablets) were to be dosed in the MAD phase. […] The subjects then received 14 daily doses in the MAD. Subjects were not required to take the drugs with food.
# Subjects were admitted to the clinical facility on Day 1 for up to 3 days. […] Following completion of all safety assessments and sampling for PK analyses, subjects were discharged from the clinical facility on Day 2. Days 2 to 25 were study drug free or daily dosing pause. A safety summary and up to day 6 post dose, PK data were analyzed (blindedly) and reviewed prior to initiation of the MAD regimen in one or both groups.
# MAD regimen started on Day 26. Depending on the outcome of the safety and PK review, wither […] or both Groups 1 and 2 were to be dosed in the MAD part of the study starting on Day 26. […] Subjects in MAD part of the study commenced daily oral administration of the study drug for 14 consecutive days (Days 26 to 39). Subjects were supplied with study drug and instructed to self-administer each morning on empty stomach.
# Day 39 was the last day of study drug administration. On Day 39, each subject returned to the clinical facility prior to dose administration and were confined to the facility until Day 40 to allow for collection of blood for PK and safety assessment. Subjects were discharged on Day 40 and returned for blood collection for PK and safety assessment on study Days 42, 44, and 46.
# Safety and PK samples was collected during the daily dosing pause on Days 4, 6, 15, and 22.
# MAD: Day 26 pre-dose and on Day 32 pre-dose: safety and PK samples was collected. […] Pharmacokinetic parameters determined using Phoenix WinNonlin 8.1. All times used in the calculations of PK parameters were the actual elapsed time from most recent treatment administration, with the exception of pre-dose data which was given the nominal time of 0.00 hr.
# [2] = Phase 2 clinical trial of oral endoxifen: safety and tolerability; format: in vivo, human; details: 4 mg/day, 16-40 days
# Protocol: Secondary effects of orally administered (Z)-endoxifen were also assessed, namely the effect of pre-operative (Z)-endoxifen treatment on the expression levels of estrogen receptor and progesterone receptor. […] Additional exploratory objectives including assessing the effect of pre-operative (Z)-Endoxifen treatment on PCNA (S phase), phospho-Histone H3 (M phase), p16 and p21 (senescence), Beta-Galactosidase (senescence), and TUNEL (apoptosis) markers, and identifying tumor RNA expression changes using RNA sequence.
# An initial group of six subjects was selected. Subjects visited the clinical facility once within 2 days prior to commencement of treatment for study assessments. […]
# Each subject returned to the clinical facility for safety assessments on a day during the week preceding their scheduled surgery. The expression of Ki-67, ER, progesterone receptor (PgR), and other exploratory markers, was measured in tumor tissue obtained during the mastectomy (or lumpectomy) and compared to the expression of these markers in pre-operative baseline biopsy material obtained prior to commencement of study treatment. […] Ki-67, ER, PgR expression were measured using standard immunopathology techniques, and exploratory markers were measured using established laboratory assays. Endoxifen levels in blood measured in blood drawn prior to dosing on day 14 of study treatment administration. […]
# [3] = Forced degradation (acid, base, heat, oxidation); format: physicochemical
# [4] = Phase I study: safety and tolerability of (Z)-endoxifen tablet and capsule; format: in vivo, human
# Excerpt: The primary objective of the study was to determine and compare the pharmacokinetics of a single oral dose of a previously studied oral (Z)-endoxifen capsule with a sustained release composition in the form of an enteric coated delayed release (Z)-endoxifen tablet (“tablet”) in healthy female volunteers. […] A secondary objective of the study was to assess the safety and tolerability of each of the oral presentation groups and to assess and compare the side effects associated with (Z)-endoxifen (capsule) or the enteric coated delayed-release (Z)-endoxifen tablet using a questionnaire.
# A study diary was provided to each participant for the purpose of recording study drug administration (date and time) and adverse events.
# Study assessments included taking the subjects' medical history, including evaluation of any on-study adverse events and concomitant medication use; height and weight; physical examination; periodic vital signs (body temperature, heart rate, respiratory rate, blood pressure); periodic 12-lead ECGs. Laboratory tests included hematology, coagulation, urinalysis, serum chemistry, virology, illicit drug screen, alcohol breath test, and pregnancy test.
# Specific assessment to evaluate treatment safety included the following: the frequency and type of adverse events, clinical laboratory testing, 12-lead-ECGs and vital signs. A modified FACTES® scoring questionnaire was used to assess symptomatology.
# [5] = Safety, tolerability and pharmacokinetics of (Z)-Endoxifen in healthy female volunteers (Protocol AG-1001-AU-001); format: in vivo, human
# Protocol: The safety, tolerability and pharmacokinetics of (Z)-Endoxifen was assessed in healthy female volunteers (Protocol AG-1001-AU-001). Participants were treated with oral (Z)-Endoxifen (1 mg, 2 mg and 4 mg) once daily for a total of fifteen doses (Days 1, and 8-21).
# Average concentration at steady state (AUCtau/tau) were compared to published values.
# [6] = test system: breast cancer tumor cell proliferation (Ki-67); test: Phase 2 clinical trial of oral endoxifen: Ki-67 in breast cancer tumors; format: in vivo, human
# Protocol: A phase 2 clinical trial of (Z)-endoxifen for treatment of breast cancer was performed. Subjects with invasive breast cancer were administered (Z)-endoxifen orally prior to undergoing mastectomy or lumpectomy. The effect of pre-operative oral (Z)-endoxifen treatment on clinical response measured by Ki-67 expression levels was assessed. Ki-67 expression levels were used as a measure of tumor cell proliferation in the subjects. The purpose of this study was to determine the effect of orally administered endoxifen on breast cancer tumor cell proliferation.
# Subjects were selected who had received an invasive breast cancer diagnosis that required a mastectomy or lumpectomy, in which the cancer was Estrogen Receptor (ER) positive and Human Epidermal growth factor Receptor 2 (HER2) negative.
# Subjects with ER positive invasive breast cancer that were scheduled for mastectomy or lumpectomy were considered for the study. Subjects consenting to the study were screened within 28 days prior to commencement of the dosing. Potential subjects were asked to consent to have tissue sections obtained from the biopsy material used for their immunopathology diagnosis. The biopsy material was used to determine baseline expression levels for Ki-67, ER, PgR and the exploratory markers.
# An initial group of six subjects was selected. Subjects visited the clinical facility once within 2 days prior to commencement of treatment for study assessments. Subjects were supplied with study drug and were asked to self-administer daily. A study diary was provided to each subject for the purpose of recording study drug administration (date and time) and any adverse events. All subjects received an oral daily dose of 4 mg/day (Z)-Endoxifen until the day preceding their scheduled surgery and for a minimum of 14-days. Subjects were instructed to take each dose in the morning in a fasted state, defined as no food at least 8 hours prior to study medication through to one hour following study medication. Subjects were instructed to self-administer (Z)-Endoxifen orally with a full cup (approximately 240 mL) of noncarbonated room temperature water (additional water is permitted, if needed). There are no restrictions related to water intake. Consecutive doses were administered 24 (±2) hours apart. If a scheduled dose was missed, the dose could be taken up to 6 hours after the scheduled dose.
# Each subject returned to the clinical facility for safety assessments on a day during the week preceding their scheduled surgery. The expression of Ki-67, ER, progesterone receptor (PgR), and other exploratory markers, was measured in tumor tissue obtained during the mastectomy (or lumpectomy) and compared to the expression of these markers in pre-operative baseline biopsy material obtained prior to commencement of study treatment. Pharmacodynamic exploratory markers including Proliferating cell nuclear antigen (PCNA, S phase), phosphor-histone H3 (M phase), p16 and […] (senescence), beta-galactosidase (senescence), Terminal deoxynucleotidyl transferase dUTP nick end labeling (TUNEL, apoptosis), and RNA sequence were assessed. Ki-67, ER, PgR expression were measured using standard immunopathology techniques, and exploratory markers were measured using established laboratory assays. Endoxifen levels in blood measured in blood drawn prior to dosing on day 14 of study treatment administration. Individual and mean serum and plasma concentrations of Endoxifen were tabulated.
# [7] = cited from earlier work
# [8] = multiple administration dose phase
# [9] = single administration dose phase
smiles,measurement,setting,value
CCC(=C(c1ccc(O)cc1)c1ccc(OCCNC)cc1)c1ccccc1 [(E)-endoxifen],(E)-endoxifen levels in serum and plasma,[1]; [8],undetectable
same,(E)-endoxifen levels in serum and plasma,[1]; [9],undetectable
"CCC(=C(c1ccc(O)cc1)c1ccc(OCCNC)cc1)c1ccccc1 [(Z)-endoxifen, 4-hydroxy-N-desmethyl-tamoxifen]",Plasma (Z)-endoxifen level,[1]; by Day 26 (600 hours post-dose),below the detection levels
same,concentration at 14 days,"[1]; female, human, blood, oral, 14 once daily 4 mg doses, read-out: (Z)-endoxifen maintained in the blood",~13 ng/mL and > 30 nM
same,mean serum versus time-point matched mean plasma (Z)-endoxifen concentration,[1]; [8],approximately 1.2 fold
same,time to achieve steady state levels of plasma and serum (Z)-endoxifen,[1]; once daily 4 mg doses,approximately 14 days
same,mean serum versus time-point matched mean plasma (Z)-endoxifen concentration,[1]; [9],approximately 1.1 fold
same,"safety or tolerability issues, including vasomotor symptoms",[2],no safety or tolerability issues
same,% degradation,[3]; Acid: 0.5N HCl for 27 hrs,No degradation
same,% degradation,[3]; Base: 0.5N NaOH for 27 hrs,0.12%
same,% degradation,[3]; Heat: 105° C. for 51 hrs,No degradation
same,"night sweats reported, percent of subjects","[4]; multiple dose administration phase, 2 of 19 subjects",11%
same,"hot flash reported, percent of subjects","[4]; multiple dose administration phase, 4 of the 18 subjects",22%
same,"hot flash reported, percent of subjects","[4]; single dose administration phase, 2 of 18 subjects",11%
same,% Ratio of Css Study (serum)/Literature (plasma),[5]; 1 mg dose,154%
same,Study Result of Average Serum (Z)-Endoxifen Css,[5]; 1 mg dose,19.1 ng/mL and 51.1 nM
same,Cmax and AUC24 hr across the three dose levels,"[5]; 1 mg, 2 mg and 4 mg",dose-proportionality
same,safety signals,"[5]; 1 mg, 2 mg and 4 mg once daily, fifteen doses",no clinically significant safety signals
same,% Ratio of Css Study (serum)/Literature (plasma),[5]; 2 mg dose,204%
same,Study Result of Average Serum (Z)-Endoxifen Css,[5]; 2 mg dose,38 ng/mL and 101.7 nM
same,% Ratio of Css Study (serum)/Literature (plasma),[5]; 4 mg dose,150%
same,Study Result of Average Serum (Z)-Endoxifen Css,[5]; 4 mg dose,85.1 ng/mL and 227.9 nM
same,half-life,"[5]; female, human, serum, oral, 1 mg, 2 mg and 4 mg, read-out: mean half-life (t1/2) by dose level",42 to 53 h
same,time to steady state,[5]; once daily dosing,approximately 7 days
same,commonly occurring adverse events with a relationship of possible or probable,[5]; only reported in participants who received (Z)-Endoxifen,"upper respiratory infection, hot flush, abdominal distension, dry mouth and menstruation delayed"
same,tolerability,"[5]; single dose and then daily for 14 days, 1 mg, 2 mg and 4 mg",well tolerated
same,"Ki-67% reduction, AVERAGE","[6]; initial results, six subjects, 4 mg/day, average 22 days",69%
same,Ki-67 reduction in every patient,"[6]; six subjects, 4 mg/day",more than 50%
same,Ki-67 level after Endoxifen treatment (all patients),"[6]; six subjects, 4 mg/day, 16-40 days",low (low (defined as less than ˜14%))
same,Ki-67% reduction,[6]; subject R1001,60%
same,Post Endoxifen Ki-67%,"[6]; subject R1001, 21 days on Endoxifen 4 mg, pre 5%",2%
same,Ki-67% reduction,[6]; subject R1002,60%
same,Post Endoxifen Ki-67%,"[6]; subject R1002, 23 days on Endoxifen 4 mg, pre 20%",8%
same,Ki-67% reduction,[6]; subject R1003,87%
same,Post Endoxifen Ki-67%,"[6]; subject R1003, 17 days on Endoxifen 4 mg, pre 90%",12%
same,Ki-67% reduction,[6]; subject R1004,91%
same,Post Endoxifen Ki-67%,"[6]; subject R1004, 17 days on Endoxifen 4 mg, pre 22%",2%
same,Ki-67% reduction,[6]; subject R1005,60%
same,Post Endoxifen Ki-67%,"[6]; subject R1005, 40 days on Endoxifen 4 mg, pre 25%",10%
same,Ki-67% reduction,[6]; subject R1006,58%
same,Post Endoxifen Ki-67%,"[6]; subject R1006, 16 days on Endoxifen 4 mg, pre 12%",5%
same,"Ki-67 levels following treatment, all six patients",[6]; subsequent results,below 25%
same,"average reduction in tumor cell proliferation, as measured by Ki-67","[6]; subsequent results, 22 days of dosing, six subjects, p=0.031",about 74%
same,Published Literature Result of Average Plasma (Z)-Endoxifen Css,[7]; 1 mg dose,12.4 ng/mL and 33.1 nM
same,Published Literature Result of Average Plasma (Z)-Endoxifen Css,[7]; 2 mg dose,18.6 ng/mL and 49.8 nM
same,Published Literature Result of Average Plasma (Z)-Endoxifen Css,[7]; 4 mg dose,56.8 ng/mL and 152.1 nM
same,Published Literature Result of Average Plasma (Z)-Endoxifen Css,[7]; 8 mg dose,96.8 ng/mL and 259.2 nM
CC/C(=C(\c1ccc(O)cc1)c1ccc(OCCNC)cc1)c1ccccc1.Cl [Endoxifen Chloride],(Z)-Endoxifen Plasma,"[7]; 20 mg/day, Aromatase Inhibitor Refractory Metastatic Breast Cancer, Goetz et al. 2013",390 nM
same,Outcomes,"[7]; 20 mg/day, Goetz et al. 2013",Gr 2 hot flash (1
same,(Z)-Endoxifen Plasma,"[7]; 40 mg/day, Aromatase Inhibitor Refractory Metastatic Breast Cancer, Goetz et al. 2013",660 nM
same,Outcomes,"[7]; 40 mg/day, Goetz et al. 2013",None; Stable disease
same,(Z)-Endoxifen Plasma,"[7]; 60 mg/day, Aromatase Inhibitor Refractory Metastatic Breast Cancer, Goetz et al. 2013","1,010 nM"
same,Outcomes,"[7]; 60 mg/day, Goetz et al. 2013",Gr 4 Triglycerides
same,(Z)-Endoxifen Plasma,"[7]; 80 mg/day, Aromatase Inhibitor Refractory Metastatic Breast Cancer, Goetz et al. 2013","1,610 nM"
same,Outcomes,"[7]; 80 mg/day, Goetz et al. 2013",Gr 2 Hot flashes
same,(Z)-Endoxifen Plasma,"[7]; 100 mg/day, Aromatase Inhibitor Refractory Metastatic Breast Cancer, Goetz et al. 2013","2,480 nM"
same,Outcomes,"[7]; 100 mg/day, Goetz et al. 2013",Gr 2 nausea (1 pt); Gr
same,(Z)-Endoxifen Plasma,"[7]; 120 mg/day, Aromatase Inhibitor Refractory Metastatic Breast Cancer, Goetz et al. 2013","2,180 nM"
same,Outcomes,"[7]; 120 mg/day, Goetz et al. 2013","Gr 2 hypersomnia,"
same,Outcomes: maximum tolerated dose,"[7]; 20->160 mg/day, Goetz et al. 2015","not observed. 1 DLT,"
same,(Z)-Endoxifen Plasma,"[7]; 160 dose (20->160 mg/day), Goetz et al. 2015","3,600 nM"
